According to patent publication US11999750B2, “Crystalline forms of (S)-5-benzyl-N-(5-methyl-4-oxo-2,3,4,5-tetrahydropyrido [3,2-B][1,4]oxazepin-3-yl)-4H-1,2,4-triazole-3-carboxamide” (Denali Therapeutics Inc., priority 2022, dated 2024):
≈ marks a conversion by molar mass, not a printed value. Entries after “also recorded” stand apart in the source; their conditions may differ.

Experiments:
Assay type in all cases: physicochemical
[1] = Exposure to ambient condition (XRPD comparison)
From the text: Therefore, TGA and DSC characterizations were not performed for Form E. According to the single crystal structure determination results, Form E is a DCM solvate.

[2] = Physical and chemical stability on storage (XRPD and HPLC); conditions: 40° C./75% RH; 25° C./60% RH; 60° C.; two and four weeks
Method: To evaluate the physical and chemical stability, Form A, Form B, and Form C were stored in 3 conditions (40° C./75% RH; 25° C./60% RH; and 60° C.) for two and four weeks. All samples were characterized using XRPD and HPLC.

[3] = Dynamic Vapor Sorption (DVS); conditions: for Weight gain by DVS: 0 percent to 95 percent relative humidity; for Weight gain by DVS / Hygroscopicity: about 25 degrees centigrade; for Form change after DVS test: XRPD after DVS, 25° C., 0 to 95% RH; for Hygroscopicity: no hygroscopicity = weight gain less than 0.2 weight percent, 0 to 95 percent RH
Method: DVS was measured via a SMS (Surface Measurement Systems) DVS Intrinsic. The relative humidity at 25° C. were calibrated against deliquescence point of LiCl, Mg(NO3)2 and KCl. To investigate the solid form stability as a function of humidity, DVS isotherm plots of Form A, Form B, and Form C were collected at 25° C. between 0 and 95% RH. […] As determined by Dynamic Vapor Sorption (DVS) in the range of from 0 percent to 95 percent relative humidity at a temperature of about 25 degrees centigrade (plus or minus 0.2 degrees C.), the crystalline Form A, Form B, and Form C of Compound (I) show a weight gain of about 0.09 weight percent, 0.07 weight percent, and 5.7 weight percent, respectively.

[4] = Slurry competition experiments (inter-conversion study of crystal forms); conditions: for Thermodynamic stability relationship / conversion in slurry: slurry in H2O and n-Heptane for 2 days, RT and 70° C.
Method: To understand the thermodynamic stability relationship between Form A, B and C, slurry competition experiments in H2O and n-Heptane were performed at RT and 70° C. Prior to the study, the starting material (Form A of Compound (I)) was used to saturate the corresponding solvent at RT and 70° C. before filtered to obtain a near-saturated solution. Equal amounts (˜ 5 mg) of Form A, Form B and Form C were weighed and then added to 0.3 mL of the prepared solution to form a new suspension, which was stirred magnetically (˜1000 rpm) at RT/70° C. for about 2 days.

[5] = Kinetic solubility in bio-relevant media (SGF, FaSSIF, FeSSIF) and H2O at 37° C.; conditions: for solubility at 24 h / solubility at 4 h: 37 °C, thermodynamic from solid; for Form change after kinetic solubility test: bio-relevant media or H2O, XRPD of residual solids
Method: Kinetic solubility tests of Form A, Form B, and Form C was performed in bio-relevant media (SGF, FaSSIF and FeSSIF) and H2O at 37° C. Solids were suspended into FaSSIF, FeSSIF, SGF and H2O with target conc. of ˜10 mg/mL. The suspensions were agitated on a rolling incubator at 25 rpm (in the incubator set at 37° C.) for 1, 4 and 24 hrs. At each time point, 1 mL of the suspension was pipetted out for centrifugation at 25000 rpm (3 min) and filtration through 0.45 μm membrane to obtain supernatant for HPLC solubility and pH tests. The residual solids were analyzed by XRPD. […] The solubility of Form A/B/C was summarized from Table 22-24.

[6] = Form identification by heating to 100° C. and cooling to RT (XRPD comparison)
Method: A weight loss of 5.7% up to 100° C. was observed on the TGA curve for Form C prepared by evaporation. […] (peak temperature) and 124.9° C. (onset temperature). […] (peak temperature) and 127.0° C. (onset temperature) were observed on the DSC curve. For form identification, variable-temperature XRPD (VT-XRPD) was performed for Form C. […] Considering the large TGA weight loss and no XRPD change after removal of water/solvent (VT-XRPD). Single crystal structure determination confirmed that Form C is a channel hydrate (without form change after dehydration).
A two-stage weight loss of 3.8% up to 85° C. and 11.5% from 85° C. to 120° C. was observed on the TGA curve. […] For form identification, Form D was heated to 100° C. and cooled to RT. […] According to the results, Form D was characterized to be an IPA solvate.

[7] = Equilibrium solubility in pH buffers, residual solid by XRPD; conditions: 8 pH buffers (pH 1.0-8.0), RT, 24 hrs, XRPD of residual solids
Method: Equilibrium solubility of Form B was measured in 8 pH buffers (i.e., pH 1.0, 2.0, 3.0, 4.0, 5.0, 6.0, 7.0, 8.0) at RT for 24 hrs. Solids were suspended into pH buffers with target conc. of ˜10 mg/mL. The suspensions were slurried at RT for 24 hrs (1000 rpm), prior to centrifugation at 20000 rpm (2 min), and filtration through 0.45 μm membrane to obtain supernatant for HPLC solubility and pH tests. The residual solids were analyzed by XRPD.

Row | Form change on storage (XRPD) [2] | HPLC purity change on storage [2] | Weight gain by DVS [3] | Form change after DVS test [3] | Thermodynamic stability relationship / conversion in slurry [4] | Solubility ([5]; FeSSIF (pH 5.0), 1 hr) [µg/mL] | Solubility ([5]; H2O (pH 6.5), 1 hr) [µg/mL] | Form change after kinetic solubility test [5] | Form change after heating to 100° C. and cooling to RT [6] | Solubility ([5]; FaSSIF (pH 6.5), 1 hr) [µg/mL] | Solubility ([5]; FaSSIF (pH 6.5), 4 hr) [µg/mL] | Solubility ([5]; FaSSIF (pH 6.5), 24 hr) [µg/mL] | Solubility ([5]; FeSSIF (pH 5.0), 4 hr) [µg/mL] | Solubility ([5]; FeSSIF (pH 5.0), 24 hr) [µg/mL] | Solubility ([5]; H2O (pH 6.5), 4 hr) [µg/mL] | Solubility ([5]; H2O (pH 6.5), 24 hr) [µg/mL] | Solubility ([5]; SGF (pH 1.8), 1 hr) [µg/mL] | Solubility ([5]; SGF (pH 1.8), 4 hr) [µg/mL] | Solubility ([5]; SGF (pH 1.8), 24 hr) [µg/mL] | Structure (SMILES) | Hygroscopicity [3] | also measured
1 | no observable form change | no noticeable HPLC purity change | ~5.7 weight percent | no form change | converted to Form B | 970 (≈ 2560 µM) | 440 (≈ 1160 µM) | converted to Form A | no form change | 860 (≈ 2270 µM) | 730 (≈ 1930 µM) | 150 (≈ 396 µM) | 150 (≈ 396 µM) | 170 (≈ 449 µM) | 100 (≈ 264 µM) | 100 (≈ 264 µM) | 700 (≈ 1850 µM) | 110 (≈ 291 µM) | 100 (≈ 264 µM) | CN1C(=O)[C@@H](NC(=O)c2nnc(Cc3ccccc3)[nH]2)COc2cccnc21 [Form C, (S)-5-benzyl-N-(5-methyl-4-oxo-2,3,4,5-tetrahydropyrido [3,2-b][1,4]oxazepin-3-yl)-4H-1,2,4-triazole-3-carboxamide] |  | Final Form ([5]; residual solid by XRPD, H2O (pH 6.5), 1 hr): A + C
2 | no observable form change | no noticeable HPLC purity change | ~0.07 weight percent | no form change | thermodynamically more stable | 100 (≈ 264 µM) | 70 (≈ 185 µM) | No form change |  | 80 (≈ 211 µM) | 90 (≈ 238 µM) | 90 (≈ 238 µM) | 110 (≈ 291 µM) | 100 (≈ 264 µM) | 70 (≈ 185 µM) | 70 (≈ 185 µM) | 80 (≈ 211 µM) | 80 (≈ 211 µM) | 80 (≈ 211 µM) | CN1C(=O)[C@@H](NC(=O)c2nnc(Cc3ccccc3)[nH]2)COc2cccnc21 [Form B, (S)-5-benzyl-N-(5-methyl-4-oxo-2,3,4,5-tetrahydropyrido [3,2-b][1,4]oxazepin-3-yl)-4H-1,2,4-triazole-3-carboxamide] | less hygroscopic; also recorded: no hygroscopicity; also recorded: not hygroscopic | Form change after equilibrium solubility evaluation [7]: No form change

Second part, the compound before the results:

Row | Structure (SMILES) | Form change on storage (XRPD) [2] | HPLC purity change on storage [2] | Weight gain by DVS [3] | Form change after DVS test [3] | Thermodynamic stability relationship / conversion in slurry [4] | Solubility ([5]; FeSSIF (pH 5.0), 1 hr) [µg/mL] | Solubility ([5]; H2O (pH 6.5), 1 hr) [µg/mL] | Form change after kinetic solubility test [5] | Form change after heating to 100° C. and cooling to RT [6] | Solubility ([5]; FaSSIF (pH 6.5), 1 hr) [µg/mL] | Solubility ([5]; FaSSIF (pH 6.5), 4 hr) [µg/mL] | Solubility ([5]; FaSSIF (pH 6.5), 24 hr) [µg/mL] | Solubility ([5]; FeSSIF (pH 5.0), 4 hr) [µg/mL] | Solubility ([5]; FeSSIF (pH 5.0), 24 hr) [µg/mL] | Solubility ([5]; H2O (pH 6.5), 4 hr) [µg/mL] | Solubility ([5]; H2O (pH 6.5), 24 hr) [µg/mL] | Solubility ([5]; SGF (pH 1.8), 1 hr) [µg/mL] | Solubility ([5]; SGF (pH 1.8), 4 hr) [µg/mL] | Solubility ([5]; SGF (pH 1.8), 24 hr) [µg/mL] | Hygroscopicity [3] | also measured
3 | CN1C(=O)[C@@H](NC(=O)c2nnc(Cc3ccccc3)[nH]2)COc2cccnc21 [Form E, (S)-5-benzyl-N-(5-methyl-4-oxo-2,3,4,5-tetrahydropyrido [3,2-b][1,4]oxazepin-3-yl)-4H-1,2,4-triazole-3-carboxamide] |  |  |  |  |  |  |  |  |  |  |  |  |  |  |  |  |  |  |  |  | Form change on exposure to ambient condition [1]: converted to Form C
4 | CN1C(=O)[C@@H](NC(=O)c2nnc(Cc3ccccc3)[nH]2)COc2cccnc21 [Form A, (S)-5-benzyl-N-(5-methyl-4-oxo-2,3,4,5-tetrahydropyrido [3,2-b][1,4]oxazepin-3-yl)-4H-1,2,4-triazole-3-carboxamide] | no observable form change | no noticeable HPLC purity change | about 0.09 weight percent | no form change | converted to Form B | 120 (≈ 317 µM) | 80 (≈ 211 µM) | No form change |  |  |  |  |  |  |  |  |  |  |  | no hygroscopicity; also recorded: less hygroscopic | solubility at 24 h ([5]; FaSSIF, pH 6.5, fassif, FaSSIF (pH 6.5), 24 hr): 100 µg/mL (≈ 264 µM); solubility at 4 h ([5]; FeSSIF, pH 5, fessif, FeSSIF (pH 5.0), 4 hr): 120 µg/mL (≈ 317 µM); solubility at 24 h ([5]; FeSSIF, pH 5, fessif, FeSSIF (pH 5.0), 24 hr): 120 µg/mL (≈ 317 µM); solubility at 4 h ([5]; SGF, pH 1.8, simulated gastric fluid, SGF (pH 1.8), 4 hr): 100 µg/mL (≈ 264 µM); solubility at 24 h ([5]; SGF, pH 1.8, simulated gastric fluid, SGF (pH 1.8), 24 hr): 100 µg/mL (≈ 264 µM); solubility at 4 h ([5]; water, pH 6.5, water, H2O (pH 6.5), 4 hr): 90 µg/mL (≈ 238 µM); solubility at 24 h ([5]; water, pH 6.5, water, H2O (pH 6.5), 24 hr): 90 µg/mL (≈ 238 µM)
5 | CN1C(=O)[C@@H](NC(=O)c2nnc(Cc3ccccc3)[nH]2)COc2cccnc21 [Form D, (S)-5-benzyl-N-(5-methyl-4-oxo-2,3,4,5-tetrahydropyrido [3,2-b][1,4]oxazepin-3-yl)-4H-1,2,4-triazole-3-carboxamide] |  |  |  |  |  |  |  |  | converted to Form C |  |  |  |  |  |  |  |  |  |  |  | 
6 | CN1C(=O)[C@@H](NC(=O)c2nnc(Cc3ccccc3)[nH]2)COc2cccnc21 [Form A + B + C] |  |  |  |  |  |  |  |  |  |  |  |  |  |  |  |  |  |  |  |  | Crystal form after slurry competition ([4]; H2O or n-Heptane, RT or 70° C., about 2 days (experiments 1-4, merged cell)): Form B
